The values below come from ChEMBL document CHEMBL5678818, “Discovery of potent SOS1 inhibitors that block RAS activation via disruption of the RAS-SOS1 interaction” (Proc Natl Acad Sci U S A, 2019).

In assay [1] the target is Serine/threonine-protein kinase MARK2 (Homo sapiens) (UniProt Q7KZI7). Kind of assay: Inhibition of MARK2 (unknown origin) assessed as residual activity at 100 nM by KINOMEscan analysis relative to control.
A further assay is filed under the species Homo sapiens. Put plainly: Inhibition of N-terminal GST-tagged recombinant human SOS1 N879A mutant (564 to 1049 residues) expressed in Escherichia coli assessed as reduction in KRAS G12C mutant activation at 10 uM by HTRF analysis relative to control. (Time-resolved FRET reads energy transfer from a long-lived donor to a nearby acceptor.)
The target of assay [2] is T1, Serine/threonine-protein kinase Nek10 (Homo sapiens) (UniProt Q6ZWH5).
T1 sequence (whole entry): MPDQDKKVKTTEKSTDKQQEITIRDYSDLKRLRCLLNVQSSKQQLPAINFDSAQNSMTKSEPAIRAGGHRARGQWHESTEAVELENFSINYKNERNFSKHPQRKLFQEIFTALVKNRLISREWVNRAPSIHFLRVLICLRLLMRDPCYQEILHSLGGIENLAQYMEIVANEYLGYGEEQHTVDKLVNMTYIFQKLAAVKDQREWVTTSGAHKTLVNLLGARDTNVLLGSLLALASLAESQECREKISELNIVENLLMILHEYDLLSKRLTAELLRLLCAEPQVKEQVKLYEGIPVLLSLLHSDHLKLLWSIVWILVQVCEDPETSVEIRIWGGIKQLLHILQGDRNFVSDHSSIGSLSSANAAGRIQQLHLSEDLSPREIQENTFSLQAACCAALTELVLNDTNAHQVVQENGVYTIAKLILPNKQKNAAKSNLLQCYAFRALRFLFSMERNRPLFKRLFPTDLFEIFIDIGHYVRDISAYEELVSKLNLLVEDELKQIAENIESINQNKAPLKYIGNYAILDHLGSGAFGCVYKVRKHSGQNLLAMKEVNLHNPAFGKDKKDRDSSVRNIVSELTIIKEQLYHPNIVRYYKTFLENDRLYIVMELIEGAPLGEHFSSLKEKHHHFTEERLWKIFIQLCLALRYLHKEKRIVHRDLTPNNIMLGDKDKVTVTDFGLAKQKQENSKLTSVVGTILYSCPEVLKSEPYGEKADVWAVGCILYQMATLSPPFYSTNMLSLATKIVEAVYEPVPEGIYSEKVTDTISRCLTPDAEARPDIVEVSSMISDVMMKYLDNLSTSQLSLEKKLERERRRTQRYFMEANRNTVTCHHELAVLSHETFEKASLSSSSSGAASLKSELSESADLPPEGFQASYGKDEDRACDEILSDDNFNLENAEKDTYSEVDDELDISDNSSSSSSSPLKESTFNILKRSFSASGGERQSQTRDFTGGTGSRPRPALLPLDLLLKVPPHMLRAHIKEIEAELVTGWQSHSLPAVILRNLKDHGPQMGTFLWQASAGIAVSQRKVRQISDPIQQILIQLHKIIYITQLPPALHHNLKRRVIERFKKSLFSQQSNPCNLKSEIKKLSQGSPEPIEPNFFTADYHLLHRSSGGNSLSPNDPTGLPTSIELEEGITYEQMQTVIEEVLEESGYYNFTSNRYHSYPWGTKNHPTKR
Put plainly: Inhibition of NEK10 (unknown origin) assessed as residual activity at 100 nM by KINOMEscan analysis relative to control.

The target of assay [3] is MAP kinase-interacting serine/threonine-protein kinase 2 (Homo sapiens) (UniProt Q9HBH9). Put plainly: Inhibition of MKNK2 (unknown origin) assessed as residual activity at 100 nM by KINOMEscan analysis relative to control.
In assay [4] the target is Serine/threonine-protein kinase PAK 2 (Homo sapiens) (UniProt Q13177). Kind of assay: Inhibition of PAK2 (unknown origin) assessed as residual activity at 100 nM by KINOMEscan analysis relative to control.
Assay [5] deals with Mast/stem cell growth factor receptor Kit (Homo sapiens), P10721 [D816V]. Put plainly: Inhibition of KIT D816V mutant (unknown origin) assessed as residual activity at 100 nM by KINOMEscan analysis relative to control.
For assay [6], the target named is Mitogen-activated protein kinase kinase kinase kinase 1 (Homo sapiens) (UniProt Q92918). Put plainly: Inhibition of HPK1 (unknown origin) assessed as residual activity at 100 nM by KINOMEscan analysis relative to control.
The target of assay [7] is Serine/threonine-protein kinase NIM1 (Homo sapiens) (UniProt Q8IY84). Kind of assay: Inhibition of NIM1 (unknown origin) assessed as residual activity at 100 nM by KINOMEscan analysis relative to control.
The target in assay [8] is Tyrosine-protein kinase ABL1 (Homo sapiens) (UniProt P00519). Put plainly: Inhibition of nonphosphorylated ABL1 (unknown origin) assessed as residual activity at 100 nM by KINOMEscan analysis relative to control.
Assay [9] deals with Citron Rho-interacting kinase (Homo sapiens) (UniProt O14578). Kind of assay: Inhibition of CIT (unknown origin) assessed as residual activity at 100 nM by KINOMEscan analysis relative to control.
For assay [10], the target named is Interferon-induced, double-stranded RNA-activated protein kinase (Homo sapiens) (UniProt P19525). Kind of assay: Inhibition of PRKR (unknown origin) assessed as residual activity at 100 nM by KINOMEscan analysis relative to control.
Assay [11] has as its target Bone morphogenetic protein receptor type-1B (Homo sapiens) (UniProt O00238). Put plainly: Inhibition of BMPR1B (unknown origin) assessed as residual activity at 100 nM by KINOMEscan analysis relative to control.
The target of assay [12] is Receptor-type tyrosine-protein kinase FLT3 (Homo sapiens) (UniProt P36888). Kind of assay: Inhibition of autoinhibited FLT3 (unknown origin) assessed as residual activity at 100 nM by KINOMEscan analysis relative to control.
The subject of assay [13] is eIF-2-alpha kinase GCN2 (Homo sapiens), Q9P2K8 [S808G]. Kind of assay: Inhibition of GCN2 S808G mutant […] domain (unknown origin) assessed as residual activity at 100 nM by KINOMEscan analysis relative to control.
Assay [14] has as its system Receptor-type tyrosine-protein kinase FLT3 (Homo sapiens), P36888 [R834Q]. Kind of assay: Inhibition of FLT3 R834Q mutant (unknown origin) assessed as residual activity at 100 nM by KINOMEscan analysis relative to control.
In assay [15] the test system is Epidermal growth factor receptor (Homo sapiens), P00533 [UNDEFINED MUTATION]. Kind of assay: Inhibition of EGFR L747-S752del/P753S mutant (unknown origin) assessed as residual activity at 100 nM by KINOMEscan analysis relative to control.

Chain of Mitogen-activated protein kinase kinase kinase kinase 1 (Homo sapiens) (Q92918 whole entry, looked up): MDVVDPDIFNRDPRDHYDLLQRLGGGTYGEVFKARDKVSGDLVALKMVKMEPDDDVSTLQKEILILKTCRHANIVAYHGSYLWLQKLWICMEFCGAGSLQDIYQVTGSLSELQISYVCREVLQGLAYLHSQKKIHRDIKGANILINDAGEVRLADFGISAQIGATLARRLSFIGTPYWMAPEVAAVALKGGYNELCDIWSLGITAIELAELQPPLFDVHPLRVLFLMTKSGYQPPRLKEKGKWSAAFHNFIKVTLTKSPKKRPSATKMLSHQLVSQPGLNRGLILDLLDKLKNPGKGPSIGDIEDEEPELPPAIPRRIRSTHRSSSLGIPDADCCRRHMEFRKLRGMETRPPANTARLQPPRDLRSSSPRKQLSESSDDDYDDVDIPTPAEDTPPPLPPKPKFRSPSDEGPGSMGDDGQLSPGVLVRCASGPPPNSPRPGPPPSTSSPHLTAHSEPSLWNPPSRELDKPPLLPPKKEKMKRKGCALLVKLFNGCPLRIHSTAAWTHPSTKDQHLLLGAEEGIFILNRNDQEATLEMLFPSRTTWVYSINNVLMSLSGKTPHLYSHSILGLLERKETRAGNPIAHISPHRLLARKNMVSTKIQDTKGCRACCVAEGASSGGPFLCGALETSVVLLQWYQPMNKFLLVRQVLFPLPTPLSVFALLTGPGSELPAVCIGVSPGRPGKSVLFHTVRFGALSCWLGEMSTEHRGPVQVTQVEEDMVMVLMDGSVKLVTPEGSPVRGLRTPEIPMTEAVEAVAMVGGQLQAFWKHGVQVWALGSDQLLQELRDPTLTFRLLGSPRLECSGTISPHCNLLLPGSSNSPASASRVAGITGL
Chain of Mast/stem cell growth factor receptor Kit (Homo sapiens), P10721 [D816V] (P10721 whole entry D816V): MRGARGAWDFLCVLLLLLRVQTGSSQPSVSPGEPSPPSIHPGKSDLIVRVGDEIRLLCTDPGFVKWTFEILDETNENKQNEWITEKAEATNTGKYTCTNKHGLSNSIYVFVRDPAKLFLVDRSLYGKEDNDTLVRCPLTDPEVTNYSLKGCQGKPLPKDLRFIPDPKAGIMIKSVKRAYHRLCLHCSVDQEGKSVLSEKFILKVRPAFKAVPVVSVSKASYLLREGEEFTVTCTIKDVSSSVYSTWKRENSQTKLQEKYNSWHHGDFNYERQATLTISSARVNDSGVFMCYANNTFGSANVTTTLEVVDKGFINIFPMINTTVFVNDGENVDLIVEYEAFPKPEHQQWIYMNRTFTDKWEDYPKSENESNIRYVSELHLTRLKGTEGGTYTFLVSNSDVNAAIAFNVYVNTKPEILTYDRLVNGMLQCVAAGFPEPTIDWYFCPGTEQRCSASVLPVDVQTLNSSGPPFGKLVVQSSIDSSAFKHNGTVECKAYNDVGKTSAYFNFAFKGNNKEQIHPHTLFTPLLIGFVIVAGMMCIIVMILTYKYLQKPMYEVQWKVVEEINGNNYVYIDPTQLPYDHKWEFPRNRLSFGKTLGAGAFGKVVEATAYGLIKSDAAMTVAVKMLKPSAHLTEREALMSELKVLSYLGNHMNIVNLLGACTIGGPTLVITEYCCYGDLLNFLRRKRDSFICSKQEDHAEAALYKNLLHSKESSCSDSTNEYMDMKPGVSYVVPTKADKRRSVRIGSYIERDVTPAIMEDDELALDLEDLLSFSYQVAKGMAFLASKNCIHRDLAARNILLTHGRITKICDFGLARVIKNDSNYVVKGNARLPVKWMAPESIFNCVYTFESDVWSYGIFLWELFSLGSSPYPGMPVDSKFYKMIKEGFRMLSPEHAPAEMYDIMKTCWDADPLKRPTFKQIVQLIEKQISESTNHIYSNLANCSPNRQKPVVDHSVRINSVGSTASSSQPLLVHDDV
Chain of Serine/threonine-protein kinase NIM1 (Homo sapiens) (Q8IY84 whole entry): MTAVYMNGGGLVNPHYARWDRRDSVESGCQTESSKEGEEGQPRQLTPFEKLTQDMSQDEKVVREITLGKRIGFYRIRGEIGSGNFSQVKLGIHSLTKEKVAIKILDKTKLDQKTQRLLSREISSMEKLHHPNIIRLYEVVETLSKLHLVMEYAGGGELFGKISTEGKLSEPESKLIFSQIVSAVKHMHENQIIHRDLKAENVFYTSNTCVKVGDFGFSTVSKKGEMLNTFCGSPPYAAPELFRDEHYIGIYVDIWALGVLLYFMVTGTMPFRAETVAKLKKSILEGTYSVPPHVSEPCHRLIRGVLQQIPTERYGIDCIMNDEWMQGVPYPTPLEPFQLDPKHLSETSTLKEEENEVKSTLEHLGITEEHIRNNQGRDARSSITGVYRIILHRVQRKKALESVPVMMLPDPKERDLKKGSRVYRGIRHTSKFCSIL
Chain of Serine/threonine-protein kinase MARK2 (Homo sapiens) (Q7KZI7 whole entry, the tested form may be a part): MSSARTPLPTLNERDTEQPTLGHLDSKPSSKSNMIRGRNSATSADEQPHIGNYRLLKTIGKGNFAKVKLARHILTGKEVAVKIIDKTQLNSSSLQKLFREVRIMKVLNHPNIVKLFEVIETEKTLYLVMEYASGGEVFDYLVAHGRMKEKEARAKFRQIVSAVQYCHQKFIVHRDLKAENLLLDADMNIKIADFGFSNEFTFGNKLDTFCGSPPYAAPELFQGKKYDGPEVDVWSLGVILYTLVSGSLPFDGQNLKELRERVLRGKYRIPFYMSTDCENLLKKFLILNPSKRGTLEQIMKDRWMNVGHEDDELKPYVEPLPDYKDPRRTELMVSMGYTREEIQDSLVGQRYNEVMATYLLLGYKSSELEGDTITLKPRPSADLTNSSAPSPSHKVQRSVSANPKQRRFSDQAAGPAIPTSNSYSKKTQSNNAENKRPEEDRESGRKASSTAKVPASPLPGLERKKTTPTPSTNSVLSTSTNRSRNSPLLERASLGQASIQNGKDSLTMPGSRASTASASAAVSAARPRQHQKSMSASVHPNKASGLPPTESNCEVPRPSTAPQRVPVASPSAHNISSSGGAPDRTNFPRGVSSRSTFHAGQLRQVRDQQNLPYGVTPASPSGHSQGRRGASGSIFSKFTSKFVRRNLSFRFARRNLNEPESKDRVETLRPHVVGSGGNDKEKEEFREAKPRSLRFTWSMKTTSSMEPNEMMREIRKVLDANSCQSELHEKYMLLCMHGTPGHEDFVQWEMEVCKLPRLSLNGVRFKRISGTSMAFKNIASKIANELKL
Chain of Serine/threonine-protein kinase PAK 2 (Homo sapiens) (Q13177 whole entry): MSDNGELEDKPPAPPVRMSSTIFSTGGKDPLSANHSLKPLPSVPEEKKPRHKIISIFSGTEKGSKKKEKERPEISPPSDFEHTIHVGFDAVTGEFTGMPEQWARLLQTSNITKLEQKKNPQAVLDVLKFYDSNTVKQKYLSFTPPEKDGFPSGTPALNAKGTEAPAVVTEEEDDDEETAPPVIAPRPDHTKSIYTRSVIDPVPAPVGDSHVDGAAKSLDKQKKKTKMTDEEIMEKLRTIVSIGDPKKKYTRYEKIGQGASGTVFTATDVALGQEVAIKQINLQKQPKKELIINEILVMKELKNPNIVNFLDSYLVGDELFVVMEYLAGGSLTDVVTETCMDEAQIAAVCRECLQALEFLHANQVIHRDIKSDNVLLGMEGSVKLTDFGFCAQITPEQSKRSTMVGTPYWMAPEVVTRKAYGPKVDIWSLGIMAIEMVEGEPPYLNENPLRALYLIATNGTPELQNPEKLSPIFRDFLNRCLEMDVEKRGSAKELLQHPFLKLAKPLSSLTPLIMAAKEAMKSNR
Chain of MAP kinase-interacting serine/threonine-protein kinase 2 (Homo sapiens) (Q9HBH9 whole entry, looked up): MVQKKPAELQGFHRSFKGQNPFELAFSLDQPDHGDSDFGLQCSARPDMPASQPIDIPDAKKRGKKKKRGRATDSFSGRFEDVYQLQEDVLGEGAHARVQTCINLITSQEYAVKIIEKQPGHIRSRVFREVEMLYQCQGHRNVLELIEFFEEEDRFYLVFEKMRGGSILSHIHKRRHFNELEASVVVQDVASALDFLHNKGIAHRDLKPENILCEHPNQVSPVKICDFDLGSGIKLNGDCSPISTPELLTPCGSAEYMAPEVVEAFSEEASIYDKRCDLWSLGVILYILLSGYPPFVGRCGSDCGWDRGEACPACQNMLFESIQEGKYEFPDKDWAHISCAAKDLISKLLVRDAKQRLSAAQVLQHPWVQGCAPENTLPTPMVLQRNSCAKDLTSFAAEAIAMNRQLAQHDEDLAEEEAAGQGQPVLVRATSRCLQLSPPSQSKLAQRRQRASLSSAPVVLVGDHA
Chain of Bone morphogenetic protein receptor type-1B (Homo sapiens) (O00238 whole entry): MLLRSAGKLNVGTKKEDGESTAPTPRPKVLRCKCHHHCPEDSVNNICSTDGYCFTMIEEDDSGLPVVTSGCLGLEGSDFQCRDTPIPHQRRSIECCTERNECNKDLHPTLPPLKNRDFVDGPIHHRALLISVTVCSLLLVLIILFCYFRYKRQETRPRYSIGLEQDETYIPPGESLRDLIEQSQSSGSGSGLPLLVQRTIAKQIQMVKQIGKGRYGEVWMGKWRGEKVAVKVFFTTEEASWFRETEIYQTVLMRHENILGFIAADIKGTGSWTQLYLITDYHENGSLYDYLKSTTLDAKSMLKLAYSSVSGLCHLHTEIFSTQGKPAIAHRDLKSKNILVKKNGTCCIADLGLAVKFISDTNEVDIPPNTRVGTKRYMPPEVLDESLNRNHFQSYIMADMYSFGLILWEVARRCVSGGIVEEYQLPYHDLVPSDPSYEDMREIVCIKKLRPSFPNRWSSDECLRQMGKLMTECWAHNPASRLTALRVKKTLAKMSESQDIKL

The term inhibition denotes the drop in the measured response relative to a control, in per cent. Take `COc1cc2ncnc(N[C@H](C)c3cccc4ccccc34)c2cc1OC`: the Activity stood at 82% in [1]; 75% in [2]; 89% in assay [3]; 100% in [4]; 73% in assay [5]; 81% in assay [6]. Moreover, the Activity in assay [7] worked out at 78%; in assay [8] it was 99%; in [9], 83%; in assay [10], 100%; in assay [11], 92%; in assay [12], 88%. For the same compound, the results for the Activity in [13], in assay [14] and in [15] were 100%, 93% and 90%, respectively. Besides, in the assay listed under Homo sapiens, the inhibition was determined as 37%.
